This passage reports T/C results from PubChem BioAssay AID334 (DTP/NCI, 2004).

The experiment concerns CD2F1 mice, intracerebral P388 leukemia, median survival T/C%. Briefly: NCI In Vivo Anticancer Drug Screen. Data for tumor model P388 Leukemia (intracerebral) in CD2F1 (CDF1) mice. As to conditions: endpoint: median survival time, higher = longer survival. The protocol:
The antitumor activity of compounds was measured in mice bearing transplantable tumors. Survival or tumor size were measured and the results are expressed as the measurement made in the treated group (T) divided by the measurement made in the vehicle treated control group (C). The tumor model used in this assay is P388 Leukemia (intracerebral) in CD2F1 (CDF1) mice

Inconclusive results and toxic doses are left out.

Take `O=NN(CCCl)C(=O)NC1CCC(=O)NC1=O` (stereo not drawn): the T/C reads like this: (dose: 3.0 mg/kg/injection, schedule: Q01DX009 (ip), vehicle: saline with Tween-80) 221 % of control; (dose: 4.0 mg/kg/injection, schedule: Q01DX001 (ip), vehicle: saline) 114 % of control; (dose: 4.0 mg/kg/injection, schedule: Q01DX009 (ip), vehicle: saline with Tween-80) 242 % of control; (dose: 6.0 mg/kg/injection, schedule: Q01DX009 (ip), vehicle: saline with Tween-80) 250 % of control; (dose: 8.0 mg/kg/injection, schedule: Q01DX001 (ip), vehicle: saline) 156 % of control; (dose: 16.0 mg/kg/injection, schedule: Q01DX001 (ip), vehicle: saline) 212 % of control. For the same compound, the T/C is 262 % of control (dose: 32.0 mg/kg/injection, schedule: Q01DX001 (ip), vehicle: saline) and 212 % of control (dose: 64.0 mg/kg/injection, schedule: Q01DX001 (ip), vehicle: saline).
